From paper PMC9115581, “Synthesis and Biological Evaluations of Betulinic Acid Derivatives With Inhibitory Activity on Hyaluronidase and Anti-Inflammatory Effects Against Hyaluronic Acid Fragment Induced Inflammation” (Frontiers in Chemistry, 2022)

Key:
[1] = Cell viability of BV-2 cells; format: cell-based, murine; details: mouse, BV2 cells
Protocol: The cytotoxicity of each compound was determined in BV-2 and RAW264.7 cells with the MTT assay ([Li et al., 2020]). Briefly, cells were seeded in 96-well plates at 20,000 cells per well. Cells were allowed to adhere for 24 h. BA derivatives were prepared to 100 mM in DMSO, then diluted in serum-free media to yield concentrations of 10 µM. After the treatment of the cells with BA derivatives for 2 h, the cells were incubated in the absence or presence of LPS (1 μg/mL) for 24 h. Cellular viability was determined as a percentage of control (DMSO) by using a Cell Proliferation Kit II (Promega, Madison, WI, United States). XTT reagent (0.3 mg/mL) was then added to each well and incubated for 4 h at 37°C and an absorbance value was measured at 492 nm using a Spectramax M2 microplate reader ([Hayon et al., 2003]).

[2] = test system: LPS-stimulated BV2 cells; assay: NO production (Griess assay) in LPS-stimulated BV2 cells; format: cell-based, murine; details: Mus musculus, BV-2, LPS 1 μg/mL
Protocol: (§1) NO concentration was determined by the Griess assay according to a previous report ([Ma et al., 2016]), RAW264.7 and BV-2 cells (20,000 cells per well) were plated into 96-well plates. After an incubation period of 24 h, the cells were pre-treated with BA derivatives for 2 h and were co-treated with LPS (1 μg/mL) for 24 h. For the LMWHAFs-induced inflammation assay, THP-1 cells were pre-treated with BA derivatives for 2 h and then treated with LPS (1 μg/mL) and HA fragment (a hyaluronan oligosaccharide 6mer; 50 μg/mL) from Amsbio (Rockville, MD, United States; product code: CSR-11002) for 24 h ([Campo et al., 2012]; [Scuruchi et al., 2016]). Subsequently, the culture medium was mixed with the Griess reagent in a 1:1 ratio followed by a 15 min incubation in the dark. An absorbance value was measured at 540 nm using a Spectramax M2 microplate reader, and the NO concentration was calculated based on the standard NO curve.

[3] = test system: LPS-stimulated RAW264.7 cells; assay: NO production (Griess assay) in LPS-stimulated RAW264.7 cells; format: cell-based, murine; details: for Reduction of LPS-stimulated NO production: 10 μM, LPS 1 μg/mL; for Decrease of NO production as compared to parent compound BA: LPS-stimulated
Protocol: as §1

[4] = test system: LPS-stimulated THP-1 cells; assay: IL-6 by ELISA in LPS-stimulated THP-1 cells; format: cell-based, human; details: 10 μM, LPS alone 695.6 pg/mL
Protocol: To evaluate the effect of BA derivatives on LPS-induced IL-6 secretion, THP-1 monocytes were seeded at a density of 50,000 cells per well in a 48-well plate and differentiated with PMA (25 ng/mL), pre-treated with the BA derivatives at concentrations of 10 μM was performed for 6 h followed by stimulation with or without 1 μg/mL LPS for 12 h. The cell culture supernatant was collected for the measurement of IL-6. The levels of IL-6 were determined using specific ELISA kits (BioLegend, San Diego, CA, United States) ([Liu et al., 2020]).

[5] = test system: HA fragment-stimulated THP-1 cells; assay: NO production in HA fragment (LMWHAFs) stimulated THP-1 cells; format: cell-based, human; details: 10 μM, HA fragment 6mer 50 μg/mL
Protocol: as §1

SMILES: C=C(C)[C@@H]1CC[C@]2(C(=O)O)CC[C@]3(C)[C@H](CC[C@@H]4[C@@]5(C)CC[C@H](O)C(C)(C)[C@@H]5CC[C@]43C)[C@@H]12 [BA, betulinic acid]
- viability at 10 µM [1]: 110%
- inhibition at 10 µM [2]: 3.4%
- Reduction of LPS-stimulated NO production [3]: 20.4%
- LPS-induced secretion of IL-6 [4]: 613.3 pg/mL
- Reduction of LMWHAF-stimulated NO production [5]: 12.4%

SMILES: C=C(C)[C@@H]1CC[C@]2(C(=O)O)CC[C@]3(C)[C@H](CC[C@@H]4[C@@]5(C)C/C(=C\c6ccccc6Br)C(=O)C(C)(C)[C@@H]5CC[C@]43C)[C@@H]12 [BA-02, (1R,3aS,5aR,5bR,7aR,11aR,11bR,13aR,13bR)-10-((E)-2-bromobenzylidene)-5a,5b,8,8,11a-pentamethyl-9-oxo-1-(prop-1-en-2-yl)icosahydro-3aH-cyclopenta[a]chrysene-3a-carboxylic acid]
- LPS-induced secretion of IL-6 [4]: 586.6 pg/mL

SMILES: C=C(C)[C@@H]1CC[C@]2(C(=O)O)CC[C@]3(C)[C@H](CC[C@@H]4[C@@]5(C)C/C(=C\c6cc(OC)ccc6[N+](=O)[O-])C(=O)C(C)(C)[C@@H]5CC[C@]43C)[C@@H]12 [BA-03, (1R,3aS,5aR,5bR,7aR,11aR,11bR,13aR,13bR)-10-((E)-5-methoxy-2-nitrobenzylidene)-5a,5b,8,8,11a-pentamethyl-9-oxo-1-(prop-1-en-2-yl)icosahydro-3aH-cyclopenta[a]chrysene-3a-carboxylic acid]
- Reduction of LPS-stimulated NO production [3]: 42.9%
- Decrease of NO production as compared to parent compound BA [3]: 2.3 fold
- LPS-induced secretion of IL-6 [4]: 586.0 pg/mL

SMILES: C=C(C)[C@@H]1CC[C@]2(C(=O)O)CC[C@]3(C)[C@H](CC[C@@H]4[C@@]5(C)C/C(=C\c6cc(F)ccc6[N+](=O)[O-])C(=O)C(C)(C)[C@@H]5CC[C@]43C)[C@@H]12 [BA-04, (1R,3aS,5aR,5bR,7aR,11aR,11bR,13aR,13bR)-10-((E)-5-fluoro-2-nitrobenzylidene)-5a,5b,8,8,11a-pentamethyl-9-oxo-1-(prop-1-en-2-yl)icosahydro-3aH-cyclopenta[a]chrysene-3a-carboxylic acid]
- Reduction of LPS-stimulated NO production [3]: 32.3%
- LPS-induced secretion of IL-6 [4]: 539.6 pg/mL

SMILES: C=C(C)[C@@H]1CC[C@]2(C(=O)O)CC[C@]3(C)[C@H](CC[C@@H]4[C@@]5(C)C/C(=C\c6ccccc6OC)C(=O)C(C)(C)[C@@H]5CC[C@]43C)[C@@H]12 [BA-05, (1R,3aS,5aR,5bR,7aR,11aR,11bR,13aR,13bR)-10-((E)-2-methoxybenzylidene)-5a,5b,8,8,11a-pentamethyl-9-oxo-1-(prop-1-en-2-yl)icosahydro-3aH-cyclopenta[a]chrysene-3a-carboxylic acid]
- Reduction of LPS-stimulated NO production [3]: 38.5%
- LPS-induced secretion of IL-6 [4]: 589.8 pg/mL

SMILES: C=C(C)[C@@H]1CC[C@]2(C(=O)O)CC[C@]3(C)[C@H](CC[C@@H]4[C@@]5(C)C/C(=C\c6cccc(OC)c6)C(=O)C(C)(C)[C@@H]5CC[C@]43C)[C@@H]12 [BA-09]
- inhibition at 10 µM [2]: 36%

SMILES: C=C(C)[C@@H]1CC[C@]2(C(=O)O)CC[C@]3(C)[C@H](CC[C@@H]4[C@@]5(C)C/C(=C\c6cccc(C(F)(F)F)c6)C(=O)C(C)(C)[C@@H]5CC[C@]43C)[C@@H]12 [BA-11, (1R,3aS,5aR,5bR,7aR,11aR,11bR,13aR,13bR)-5a,5b,8,8,11a-pentamethyl-9-oxo-1-(prop-1-en-2-yl)-10-((E)-3-(trifluoromethyl)benzylidene)icosahydro-3aH-cyclopenta[a]chrysene-3a-carboxylic acid]
- inhibition at 10 µM [2]: 7.7%
- Reduction of LPS-stimulated NO production [3]: 33.4%
- Reduction of LMWHAF-stimulated NO production [5]: 11.3%

SMILES: C=C(C)[C@@H]1CC[C@]2(C(=O)O)CC[C@]3(C)[C@H](CC[C@@H]4[C@@]5(C)C/C(=C\c6ccc(OC)cc6)C(=O)C(C)(C)[C@@H]5CC[C@]43C)[C@@H]12 [BA-13, (1R,3aS,5aR,5bR,7aR,11aR,11bR,13aR,13bR)-10-((E)-4-methoxybenzylidene)-5a,5b,8,8,11a-pentamethyl-9-oxo-1-(prop-1-en-2-yl)icosahydro-3aH-cyclopenta[a]chrysene-3a-carboxylic acid]
- inhibition at 10 µM [2]: 33.6%
- Reduction of LPS-stimulated NO production [3]: 46.4%
- Decrease of NO production as compared to parent compound BA [3]: 2.1 fold
- Reduction of LMWHAF-stimulated NO production [5]: 35.6%
